Laboratory results reported in US6294542A, “Pyrimidinone compounds, pharmaceutical compositions containing the compounds and the process for preparing the same” (Boryung Pharmaceutical Co. Ltd., priority 1998, dated 2001).

How the values were obtained:
[1] = tested on: Angiotensin II-induced pressor response; assay: In vivo Angiotensin II antagonism in conscious normotensive rats; settings: Rattus norvegicus, po; P.O.; conscious normotensive male SD rats; Angiotensin II 0.1 μg/kg; read-out: ID50 (dose of test compound necessary to produce 50% inhibition of Angiotensin II-induced pressor response)
Description: The antagonistic activity of the compound (I) against the angiotensin II, which is prepared by the process according to a preferred embodiment of the invention, was evaluated with relation to rats.
In vivo Angiotensin II antagonism in conscious normotensive rats.
Male SD rats (Charles River Japan, 9 weeks, 300-350 g) were anesthetized with pentobarbital at 50 mg/kg i.p. Both the left femoral artery and the right femoral vein were cannulated. A heparin-filled catheter (50U/ml) was tunneled subcutaneously (s.c.) to the dorsal side of the neck and exteriorized.
Rats were permitted to recover overnight from anesthesia and allowed free access to water, but food was withheld.
The next day, the femoral artery catheter was connected to a pressure transducer (COBE 041-500-508, USA) coupled to a polygraph (GRASS Model 7, USA) to monitor arterial blood pressure. After an appropriate equilibration period, Angiotensin II (0.1 μg/kg) was injected in the femoral vein three times during the control period.
Test compounds were then administered orally (p.o.) at a constant volume of 2 ml/kg.
Angiotensin II challenges were repeated at set times thereafter.
ID50 values, the dose of test compound necessary to produce 50% inhibition of Angiotensin II-induced pressor response, were calculated from peak inhibition percentage with several doses of test compound.

[2] = Acute Toxicity Test (oral, mice); type: in vivo; settings: for LD50: mouse, in vivo, po
Description: Respective 5 mice of ICR system, which was distributed from Korean Laboratory Animal Center, were bred in a polycarbonate breeding box at a breeding environment of 23±1° C. of temperature, 55±5% of humidity, 10-15 times/hr of evacuation, 12 hr cycle of fluorescent light luminance, and 150-300 Lux of illumination.
After observing the mice for one week of acclimation breeding period, only normal mice were selected for laboratory work. The mice were fed with sterilized feed for laboratory animals, which was made by Cheil Jedang Co.,Ltd, and supplied with purified water to drink.
During the acclimation period, mice, who were evaluated to be healthy, were weighed and divided into groups randomly. Individual identification of laboratory animals was performed by indumentum pigment display and tag display per breeding box.
Establishment of dose was carried out according to a result of preliminary test in such a manner that a maximum dose group for both male and female was set to 5000 mg/kg and azeotropy was set to 1.71. Medium-high, medium and medium-low dose groups were respectively set as follows and a control group was administrated with physiological saline for injection.
Before administration of testing substances, body weight of the laboratory animals was in the range of 24-28 g in case of male and in the range of 19-28 g in case of female, respectively. The laboratory animals were aged 6 weeks.
Preparation of the testing substances was dissolved in physiological saline before administration. Dose was calculated according to the body weight which was measured before administration and dispensed by oral administration to a mouse who was in abrosia for 18 hours before testing.
Observation of clinical symptom such as general change, toxic symptom and mortality was performed for all laboratory animals once an hour during 6 hours after administration on the very administration day, and once a day from the next day to 14th day of administration.
Administration group, who was administered with testing substances, and the control group were weighed on the administration day, first, third, seventh, tenth and fourteenth days from the administration at a predetermined time for all animals who were alive.
After finish of the test, all animals were slightly anesthetized with ether and bleeding-killed. Appearance and internal organs of the animals were examined with naked eye carefully. Animals, who died during the text, were examined in the same manner.

In the case of `CCCCc1nc(C)c(CC(N)=S)c(=O)n1Cc1ccc(-c2ccccc2-c2nnn[nH]2)cc1` [Compound 1, 2-n-butyl-5-aminothiocarbonylmethyl-6-methyl-3-[[2'-(1H-tetrazol-5-yl)biphenyl-4-yl]methyl]-pyrimidine-4(3H)-one], the ED50 [1] is reported as > 3 mg/kg.

In the case of `CCCCc1nc(C)c(CC(=S)N(C)C)c(=O)n1Cc1ccc(-c2ccccc2-c2nnn[nH]2)cc1` [Compound 2, 2-n-butyl-5-dimethylaminothiocarbonylmethyl-6-methyl-3-[[2'-(1H-tetrazol-5-yl)biphenyl-4-yl]methyl]-pyrimidine-4(3H)-one], the “Mortality (death number/survival number)” value ([2]; female, 1000 mg/kg oral, day 0) is reported as 0/5, the “Mortality (death number/survival number)” value ([2]; female, 1000 mg/kg oral, day 1) is reported as 0/5 and the “Mortality (death number/survival number)” value ([2]; female, 1000 mg/kg oral, day 2) is reported as 0/5. For the same compound, the “Mortality (death number/survival number)” value ([2]; female, 1000 mg/kg oral, day 3) was 0/5, the “Mortality (death number/survival number)” value ([2]; female, 1000 mg/kg oral, day 7) was 0/5 and the “Mortality (death number/survival number)” value ([2]; female, 1000 mg/kg oral, day 14) was 0/5. For the same compound, the “Mortality (death number/survival number)” value ([2]; female, 1710 mg/kg oral, day 0) was 0/5, the “Mortality (death number/survival number)” value ([2]; female, 1710 mg/kg oral, day 1) was 0/5 and the “Mortality (death number/survival number)” value ([2]; female, 1710 mg/kg oral, day 2) was 0/5. For the same compound, the “Mortality (death number/survival number)” value ([2]; female, 1710 mg/kg oral, day 3) was 0/5, the “Mortality (death number/survival number)” value ([2]; female, 1710 mg/kg oral, day 7) was 0/5 and the “Mortality (death number/survival number)” value ([2]; female, 1710 mg/kg oral, day 14) was 0/5. For the same compound, the “Mortality (death number/survival number)” value ([2]; female, 2924 mg/kg oral, day 0) was 0/5, the “Mortality (death number/survival number)” value ([2]; female, 2924 mg/kg oral, day 1) was 0/5 and the “Mortality (death number/survival number)” value ([2]; female, 2924 mg/kg oral, day 2) was 0/5. For the same compound, the “Mortality (death number/survival number)” value ([2]; female, 2924 mg/kg oral, day 3) was 0/5, the “Mortality (death number/survival number)” value ([2]; female, 2924 mg/kg oral, day 7) was 0/5 and the “Mortality (death number/survival number)” value ([2]; female, 2924 mg/kg oral, day 14) was 0/5. For the same compound, the “Final mortality (death number/total number)” value ([2]; female, 5000 mg/kg oral) was 0/5, the “Mortality (death number/survival number)” value ([2]; female, 5000 mg/kg oral, day 0) was 0/5 and the “Mortality (death number/survival number)” value ([2]; female, 5000 mg/kg oral, day 1) was 0/5. For the same compound, the “Mortality (death number/survival number)” value ([2]; female, 5000 mg/kg oral, day 2) was 0/5, the “Mortality (death number/survival number)” value ([2]; female, 5000 mg/kg oral, day 3) was 0/5 and the “Mortality (death number/survival number)” value ([2]; female, 5000 mg/kg oral, day 7) was 0/5. For the same compound, the “Mortality (death number/survival number)” value ([2]; female, 5000 mg/kg oral, day 14) was 0/5, the “Mortality (death number/survival number)” value ([2]; male, 1000 mg/kg oral, day 0) was 0/5 and the “Mortality (death number/survival number)” value ([2]; male, 1000 mg/kg oral, day 1) was 0/5. The “Mortality (death number/survival number)” value ([2]; male, 1000 mg/kg oral, day 2) was 0/5, the “Mortality (death number/survival number)” value ([2]; male, 1000 mg/kg oral, day 3) was 0/5 and the “Mortality (death number/survival number)” value ([2]; male, 1000 mg/kg oral, day 7) was 0/5. The “Mortality (death number/survival number)” value ([2]; male, 1000 mg/kg oral, day 14) was 0/5, the “Mortality (death number/survival number)” value ([2]; male, 1710 mg/kg oral, day 0) was 0/5 and the “Mortality (death number/survival number)” value ([2]; male, 1710 mg/kg oral, day 1) was 0/5. For the same compound, the “Mortality (death number/survival number)” value ([2]; male, 1710 mg/kg oral, day 2) was 0/5, the “Mortality (death number/survival number)” value ([2]; male, 1710 mg/kg oral, day 3) was 0/5 and the “Mortality (death number/survival number)” value ([2]; male, 1710 mg/kg oral, day 7) was 0/5. The “Mortality (death number/survival number)” value ([2]; male, 1710 mg/kg oral, day 14) was 0/5, the “Mortality (death number/survival number)” value ([2]; male, 2924 mg/kg oral, day 0) was 0/5 and the “Mortality (death number/survival number)” value ([2]; male, 2924 mg/kg oral, day 1) was 0/5. For the same compound, the “Mortality (death number/survival number)” value ([2]; male, 2924 mg/kg oral, day 2) was 0/5, the “Mortality (death number/survival number)” value ([2]; male, 2924 mg/kg oral, day 3) was 0/5 and the “Mortality (death number/survival number)” value ([2]; male, 2924 mg/kg oral, day 7) was 0/5. For the same compound, the “Mortality (death number/survival number)” value ([2]; male, 2924 mg/kg oral, day 14) was 0/5, the “Final mortality (death number/total number)” value ([2]; male, 5000 mg/kg oral) was 0/5 and the “Mortality (death number/survival number)” value ([2]; male, 5000 mg/kg oral, day 0) was 0/5. For the same compound, the “Mortality (death number/survival number)” value ([2]; male, 5000 mg/kg oral, day 1) was 0/5, the “Mortality (death number/survival number)” value ([2]; male, 5000 mg/kg oral, day 2) was 0/5 and the “Mortality (death number/survival number)” value ([2]; male, 5000 mg/kg oral, day 3) was 0/5. For the same compound, the “Mortality (death number/survival number)” value ([2]; male, 5000 mg/kg oral, day 7) was 0/5, the “Mortality (death number/survival number)” value ([2]; male, 5000 mg/kg oral, day 14) was 0/5 and the LD50 ([2]; female mice) was > 5000 mg/kg. The LD50 ([2]; male mice) was > 5000 mg/kg and the ED50 [1] was 1.1 mg/kg.

For `CCCCc1nc(C)c(CC(=S)N(CC)CC)c(=O)n1Cc1ccc(-c2ccccc2-c2nnn[nH]2)cc1` [Compound 3, 2-n-butyl-5-diethylaminothiocarbonylmethyl-6-methyl-3-[[2'-(1H-tetrazol-5-yl)biphenyl-4-yl]methyl]-pyrimidine-4(3H)-one], the ED50 [1] was < 3 mg/kg.

Compound `CCCCc1nc(C)c(CC(=S)N2CCCCCCC2)c(=O)n1Cc1ccc(-c2ccccc2-c2nn[nH]n2)cc1` [Compound 4, 2-n-butyl-5-heptamethyleniminothiocarbonyl-methyl-6-methyl-3-[[2'-(1H-tetrazol-5-yl)biphenyl-4-yl]methyl]-pyrimidine-4(3H)-one] has an ED50 [1] of 3.1 mg/kg.

In the case of `CCCCc1nc(C)c(CC(=S)N2CCSCC2)c(=O)n1Cc1ccc(-c2ccccc2-c2nn[nH]n2)cc1` [Compound 5, 2-n-butyl-5-thiomorpholynothiocarbonylmethyl-6-methyl-3-[[2'-(1H-tetrazol-5-yl)-biphenyl-4-yl]methyl]-pyrimidine-4(3H)-one], the ED50 [1] is reported as < 3 mg/kg.

In the case of `CCCCc1nc(C)c(CC(=S)N2CCOCC2)c(=O)n1Cc1ccc(-c2ccccc2-c2nn[nH]n2)cc1` [Compound 6], the ED50 [1] is reported as < 3 mg/kg.

For `CCCCc1nc(C)c(CC(=S)N2CCCCC2)c(=O)n1Cc1ccc(-c2ccccc2-c2nnn[nH]2)cc1` [Compound 7, 2-n-butyl-5-piperidinothiocarbonylmethyl-6-methyl-3-[[2 '-(1H-tetrazol-5-yl)-biphenyl-4-yl]methyl]-pyrimidine-4(3H)-one], the ED50 [1] was < 3 mg/kg.

In the case of `CCCCc1nc(C)c(CC(=S)N2CCC2)c(=O)n1Cc1ccc(-c2ccccc2-c2nn[nH]n2)cc1` [Compound 9, 2-n-butyl-5-azetidinothiocarbonylmethyl-6-methyl-3-[[2'-(1H-tetrazol-5-yl)-biphenyl-4-yl]methyl]-pyrimidine-4 (3H)-one], the ED50 [1] is reported as 1.19 mg/kg.
